Results published in patent publication US12421230B2, “Tricyclic heteroaryl compounds useful as IRAK4 inhibitors” (BRISTOL-MYERS SQUIBB COMPANY, priority 2020, dated 2025).
Where a name gives a salt, the structure may show the parent alone.

Each molecule was assayed against T1, IRAK4 (Homo sapiens, UniProt Q9NWZ3) (assay: IRAK4 Inhibition Assay). Details: ATP 500 μM; fluoresceinated peptide 1.5 μM; IRAK4 0.6 nM; 60 min room temperature; Caliper LABCHIP.
T1 sequence (Q9NWZ3 1-460): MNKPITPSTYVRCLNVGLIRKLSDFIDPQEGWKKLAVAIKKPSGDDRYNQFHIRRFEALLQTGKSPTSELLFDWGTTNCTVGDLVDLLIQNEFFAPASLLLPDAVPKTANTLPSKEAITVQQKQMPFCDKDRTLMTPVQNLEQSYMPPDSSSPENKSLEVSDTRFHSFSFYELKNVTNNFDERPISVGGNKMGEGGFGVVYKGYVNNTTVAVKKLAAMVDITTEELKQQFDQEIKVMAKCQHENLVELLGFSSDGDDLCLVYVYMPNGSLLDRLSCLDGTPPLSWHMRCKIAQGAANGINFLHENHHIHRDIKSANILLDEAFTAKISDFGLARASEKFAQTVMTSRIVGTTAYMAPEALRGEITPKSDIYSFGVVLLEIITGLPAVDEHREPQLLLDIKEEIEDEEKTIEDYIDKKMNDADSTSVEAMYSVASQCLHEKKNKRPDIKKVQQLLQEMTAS
Format: biochemical
Procedure: The assays were performed in U-bottom 384-well plates. The final assay volume was 30 μL prepared from 15 μL additions of enzyme and substrates (fluoresceinated peptide and ATP) and test compounds in assay buffer (20 mM HEPES pH 7.2, 10 mM MgCl2, 0.015% Brij 35 and 4 mM DTT). The reaction was initiated by the combination of IRAK4 with substrates and test compounds. The reaction mixture was incubated at room temperature for 60 min. and terminated by adding 45 μL of 35 mM EDTA to each sample. The reaction mixture was analyzed on the Caliper LABCHIP® 3000 (Caliper, Hopkinton, MA) by electrophoretic separation of the fluorescent substrate and phosphorylated product. Inhibition data were calculated by comparison to no enzyme control reactions for 100% inhibition and vehicle-only reactions for 0% inhibition. The final concentrations of reagents in the assays are ATP, 500 μM; FL-IPTSPITTTYFFFKKK peptide 1.5 μM; IRAK4, 0.6 nM; and DMSO, 1.6%.

**Q.** `CC(C)Nc1c(C(=O)NC2CCNCC2)cnc2c1[nH]c1cc(C#N)ccc12` [Example 19, 7-cyano (isopropylamino)-N-(piperidin-4-yl)-5H-pyrido[3,2-b]indole-3-carboxamide] was tested. Which IC50 did it give?
**A.** 20 nM

**Q.** `CC(C)(O)[C@H](F)CNC(=O)c1cnc2c([nH]c3cc(C#N)ccc32)c1NC1CCN(S(C)(=O)=O)CC1` [Example 64, (R)-7-cyano-N-(2-fluoro-3-hydroxy-3-methylbutyl)-4-((1-(methylsulfonyl)piperidin-4-yl)amino)-5H-pyrido[3,2-b]indole-3-carboxamide] was tested. Which IC50 did it give?
**A.** 53 nM

**Q.** How did the IC50 turn out when `CC(C)Nc1c(-c2cc(C3CCCNC3)no2)cnc2c1[nH]c1cc(C#N)ccc12` (centres unmarked) [Example 79, 4-(isopropylamino)-3-(3-(piperidin-3-yl)isoxazol-5-yl)-5H-pyrido[3,2-b]indole-7-carbonitrile] was run?
**A.** 22 nM

**Q.** For `CCNc1c(C(=O)NCCC2CCCNC2)cnc2c1[nH]c1cc(C#N)ccc12` (centres unmarked) [Example 55, 7-cyano-4-(ethylamino)-N-(2-(piperidin-3-yl)ethyl)-5H-pyrido[3,2-b]indole-3-carboxamide], which IC50 is on record?
**A.** 2.8 nM

**Q.** With `CC(C)Nc1c(C(=O)N[C@H]2C[C@@H](O)C2)cnc2c1[nH]c1cc(C#N)ccc12` [Example 24, 7-cyano-N-((1s,3s)-3-hydroxycyclobutyl)-4-(isopropylamino)-5H-pyrido[3,2-b]indole-3-carboxamide] as the molecule, how does the IC50 read?
**A.** 120 nM

**Q.** Which IC50 does the source give for `CC(C)Nc1c(C(=O)NCC2(CO)CC2)cnc2c1[nH]c1cc(C#N)ccc12` [Example 8, 7-cyano-N-((1-(hydroxymethyl)cyclopropyl)methyl)-4-(isopropylamino)-5H-pyrido[3,2-b]indole-3-carboxamide] here?
**A.** 330 nM

**Q.** Which IC50 does the source give for `CC(C)(O)CCNC(=O)c1cnc2c([nH]c3cc(C#N)ccc32)c1NCC1CC1` [Example 33, 7-cyano-4-((cyclopropylmethyl)amino)-N-(3-hydroxy-3-methylbutyl)-5H-pyrido[3,2-b] indole-3-carboxamide] here?
**A.** 30.8 nM

**Q.** For `CC(C)Nc1c(C(=O)NCC(C)(C)CO)cnc2c1[nH]c1cc(C#N)ccc12` [Example 9, 7-cyano-N-(3-hydroxy-2,2-dimethylpropyl)-4-(isopropylamino)-5H-pyrido[3,2-b]indole-3-carboxamide], which IC50 is on record?
**A.** 330 nM

**Q.** With `CC(C)Nc1c(C(=O)NCCC2CC2)cnc2[nH]c3ccc(C#N)cc3c12` [Example 82, 6-cyano-N-(2-cyclopropylethyl)-4-(isopropylamino)-9H-pyrido[2,3-b]indole-3-carboxamide] as the molecule, how does the IC50 read?
**A.** 650 nM

**Q.** With `CC(C)(O)CCNC(=O)c1cnc2c([nH]c3cc(C#N)ccc32)c1N[C@@H]1CCOC1` [Example 26, (R)-7-cyano-N-(3-hydroxy-3-methylbutyl)-4-((tetrahydrofuran-3-yl)amino)-5H-pyrido[3,2-b] indole-3-carboxamide] as the molecule, how does the IC50 read?
**A.** 33 nM

**Q.** For `CC(C)Nc1c(C(=O)NC[C@@H](F)C(C)(C)O)cnc2c1[nH]c1cc(-c3ccc(=O)[nH]c3)ccc12` [Example 68, (R)—N-(2-fluoro-3-hydroxymethylbutyl)-4-(isopropylamino)-7-(6-oxo-1,6-dihydropyridin-3-yl)-5H-pyrido[3,2-b]indole-3-carboxamide], which IC50 is on record?
**A.** 580 nM

**Q.** `CC(C)Nc1c(C(=O)NCCC(C)(C)N)cnc2c1[nH]c1cc(C#N)ccc12` [Example 52, N-(3-amino-3-methylbutyl)-7-cyano-4-(isopropylamino)-5H-pyrido[3,2-b]indole-3-carboxamide] was tested. Which IC50 did it give?
**A.** 3.3 nM

**Q.** With `COC(=O)N[C@H]1C[C@H](NC(=O)c2cnc3c([nH]c4cc(C#N)ccc43)c2NC(C)C)C1` [Example 50, methyl ((1R,3R)-3-(7-cyano-4-(isopropylamino)-5H-pyrido[3,2-b]indole-3-carboxamido)cyclobutyl)carbamate] as the molecule, how does the IC50 read?
**A.** 33 nM

**Q.** Which IC50 does the source give for `CC(C)Nc1c(C(=O)NC[C@@H](F)C(C)(C)O)cnc2c1[nH]c1cc(-c3cn[nH]c3)ccc12` [Example 67, (R)—N-(2-fluoro-3-hydroxy-3-methylbutyl)-4-(isopropylamino)-7-(1H-pyrazol-4-yl)-5H-pyrido[3,2-b]indole-3-carboxamide] here?
**A.** 30 nM

**Q.** Which IC50 does the source give for `CCCc1nc(-c2cnc3c([nH]c4cc(C#N)ccc43)c2NC(C)C)n[nH]1` [Example 71, 4-(isopropylamino)-3-(5-propyl-1H-1,2,4-triazol-3-yl)-5H-pyrido[3,2-b]indole carbonitrile] here?
**A.** 500 nM

**Q.** How did the IC50 turn out when `CC(C)Cc1nc(-c2cnc3c([nH]c4cc(C#N)ccc43)c2NC(C)C)n[nH]1` [Example 70, 3-(5-isobutyl-1H-1,2,4-triazol-3-yl)-4-(isopropylamino)-5H-pyrido[3,2-b]indole-7-carbonitrile, TFA] was run?
**A.** 1700 nM

**Q.** With `CC(C)Nc1c(C(=O)NCC2(CO)COC2)cnc2c1[nH]c1cc(C#N)ccc12` [Example 7, 7-cyano-N-((3-(hydroxymethyl)oxetan-3-yl)methyl)-4-(isopropylamino)-5H-pyrido[3,2-b]indole-3-carboxamide] as the molecule, how does the IC50 read?
**A.** 170 nM

**Q.** How did the IC50 turn out when `CC(C)CCn1cc(-c2cnc3c([nH]c4cc(C#N)ccc43)c2NC(C)C)nn1` [Example 73, 3-(1-isopentyl-1H-1,2,3-triazol-4-yl)-4-(isopropylamino)-5H-pyrido[3,2-b]indole-7-carbonitrile] was run?
**A.** 1.5 nM

**Q.** `COc1ccc(CNc2c(C(=O)NCCC(C)(C)O)cnc3c2[nH]c2cc(C#N)ccc23)cc1OC` [Example 56, 7-cyano-4-((3,4-dimethoxybenzyl)amino)-N-(3-hydroxy-3-methylbutyl)-5H-pyrido[3,2-b]indole-3-carboxamide] was tested. Which IC50 did it give?
**A.** 510 nM

**Q.** With `CC(C)Nc1c(-c2cc(C3CNCCO3)no2)cnc2c1[nH]c1cc(C#N)ccc12` (centres unmarked) [Example 78, 4-(isopropylamino)-3-(3-(morpholin-2-yl)isoxazol-5-yl)-5H-pyrido[3,2-b]indole-7-carbonitrile] as the molecule, how does the IC50 read?
**A.** 26 nM

**Q.** How did the IC50 turn out when `CC(C)Nc1c(C(=O)N[C@H]2C[C@H](N)C2)cnc2c1[nH]c1cc(C#N)ccc12` [Example 47, N-((1R,3R)-3-aminocyclobutyl)-7-cyano (isopropylamino)-5H-pyrido[3,2-b]indole-3-carboxamide] was run?
**A.** 40 nM

**Q.** `CC(C)Nc1c(C(=O)NC2CCOCC2)cnc2c1[nH]c1cc(C#N)ccc12` [Example 11, 7-cyano-4-(isopropylamino)-N-(tetrahydro-2H-pyran-4-yl)-5H-pyrido[3,2-b]indole-3-carboxamide] was tested. Which IC50 did it give?
**A.** 27 nM

**Q.** Which IC50 does the source give for `CC(C)Nc1c(C(=O)NC2CCCOC2)cnc2c1[nH]c1cc(C#N)ccc12` (centres unmarked) [Example 6, 7-cyano-4-(isopropylamino)-N-(tetrahydro-2H-pyran-3-yl)-5H-pyrido[3,2-b]indole-3-carboxamide] here?
**A.** 37 nM

**Q.** `CCNc1c(C(=O)NCCC2CCCCN2)cnc2c1[nH]c1cc(C#N)ccc12` (centres unmarked) [Example 58, 7-cyano-4-(ethylamino)-N-(2-(piperidin-2-yl)ethyl)-5H-pyrido[3,2-b]indole-3-carboxamide] was tested. Which IC50 did it give?
**A.** 24 nM

**Q.** Which IC50 does the source give for `CC(C)Nc1c(C(=O)NCCC(C)(C)O)cnc2c1[nH]c1cc(C(N)=O)ccc12` [Example 48, N3-(3-hydroxy-3-methylbutyl)-4-(isopropylamino)-5H-pyrido[3,2-b]indole-3,7-dicarboxamide] here?
**A.** 240 nM

**Q.** Which IC50 does the source give for `CC(C)Nc1c(C(=O)NC[C@@H](F)C(C)(C)O)cnc2[nH]c3ccc(C#N)cc3c12` [Example 81, (R)-6-cyano-N-(2-fluoro-3-hydroxy-3-methylbutyl)-4-(isopropylamino)-9H-pyrido [2,3-b]indole-3-carboxamide] here?
**A.** 170 nM
